Laboratory results: PubChem BioAssay (NCI)
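Test compounds were applied to cells in 96-well plates for 48 hours at 5 doses. TGI: concentration producing complete growth inhibition.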

Assays:
Experiment in all cases: NCI tumour cell line growth inhibition, 48 h
SK-MEL-28 melanoma = tested on: SK-MEL-28 melanoma
HCT-15 colon = tested on: HCT-15 colon
CAKI-1 renal = tested on: CAKI-1 renal
RXF 393 renal = tested on: RXF 393 renal
SF-268 CNS = tested on: SF-268 CNS
SF-539 CNS = tested on: SF-539 CNS
SN12K1 renal = tested on: SN12K1 renal
SK-OV-3 ovarian = tested on: SK-OV-3 ovarian
HCT-116 colon = tested on: HCT-116 colon
SNB-78 CNS = tested on: SNB-78 CNS
LOX IMVI melanoma = tested on: LOX IMVI melanoma
OVCAR-8 ovarian = tested on: OVCAR-8 ovarian
HOP-62 NSCLC = tested on: HOP-62 NSCLC
EKVX NSCLC = tested on: EKVX NSCLC
IGROV1 ovarian = tested on: IGROV1 ovarian
HT29 colon = tested on: HT29 colon
OVCAR-4 ovarian = tested on: OVCAR-4 ovarian
UACC-257 melanoma = tested on: UACC-257 melanoma
M19-MEL melanoma = tested on: M19-MEL melanoma
SNB-19 CNS = tested on: SNB-19 CNS
SNB-75 CNS = tested on: SNB-75 CNS
P388/ADR leukemia = tested on: P388/ADR leukemia
UACC-62 melanoma = tested on: UACC-62 melanoma
HL-60(TB) leukemia = tested on: HL-60(TB) leukemia
UO-31 renal = tested on: UO-31 renal
COLO 205 colon = tested on: COLO 205 colon
K-562 leukemia = tested on: K-562 leukemia
KM12 colon = tested on: KM12 colon
SK-MEL-5 melanoma = tested on: SK-MEL-5 melanoma
HCC-2998 colon = tested on: HCC-2998 colon
A498 renal = tested on: A498 renal
DLD-1 colon = tested on: DLD-1 colon
SW-620 colon = tested on: SW-620 colon
MCF7 breast = tested on: MCF7 breast
MOLT-4 leukemia = tested on: MOLT-4 leukemia
SN12C renal = tested on: SN12C renal
NCI-H522 lung = tested on: NCI-H522 lung
HOP-92 NSCLC = tested on: HOP-92 NSCLC
NCI-H226 lung = tested on: NCI-H226 lung
RPMI-8226 leukemia = tested on: RPMI-8226 leukemia
NCI-H23 lung = tested on: NCI-H23 lung
MALME-3M melanoma = tested on: MALME-3M melanoma
NCI-H460 lung = tested on: NCI-H460 lung
XF 498 CNS = tested on: XF 498 CNS
CCRF-CEM leukemia = tested on: CCRF-CEM leukemia
P388 leukemia = tested on: P388 leukemia
DMS 114 small cell lung = tested on: DMS 114 small cell lung
OVCAR-3 ovarian = tested on: OVCAR-3 ovarian
HOP-18 NSCLC = tested on: HOP-18 NSCLC
DMS 273 small cell lung = tested on: DMS 273 small cell lung
A549 NSCLC = tested on: A549 NSCLC
SK-MEL-2 melanoma = tested on: SK-MEL-2 melanoma
SF-295 CNS = tested on: SF-295 CNS
OVCAR-5 ovarian = tested on: OVCAR-5 ovarian
NCI/ADR-RES ovarian = tested on: NCI/ADR-RES ovarian
KM20L2 colon = tested on: KM20L2 colon
U251 CNS = tested on: U251 CNS

O=C(O)CCC(NC(=O)c1ccc(Nc2nc3ccc(C(F)(F)F)cc3nc2-c2ccccc2)cc1)C(=O)O (stereo not given)
TGI (SK-MEL-28 melanoma): > 100 µM
TGI (HCT-15 colon): > 100 µM
TGI (CAKI-1 renal): > 100 µM
TGI (RXF 393 renal): > 100 µM
TGI (SF-268 CNS): > 100 µM
TGI (SF-539 CNS): > 100 µM
TGI (SN12K1 renal): > 100 µM
TGI (SK-OV-3 ovarian): > 100 µM
TGI (HCT-116 colon): > 100 µM
TGI (SNB-78 CNS): > 100 µM
TGI (LOX IMVI melanoma): > 100 µM
TGI (OVCAR-8 ovarian): > 100 µM
TGI (HOP-62 NSCLC): > 100 µM
TGI (EKVX NSCLC): > 100 µM
TGI (IGROV1 ovarian): > 100 µM
TGI (HT29 colon): > 100 µM
TGI (OVCAR-4 ovarian): > 100 µM
TGI (UACC-257 melanoma): > 100 µM
TGI (M19-MEL melanoma): > 100 µM
TGI (SNB-19 CNS): > 100 µM
TGI (SNB-75 CNS): > 100 µM
TGI (P388/ADR leukemia): > 100 µM
TGI (UACC-62 melanoma): > 100 µM
TGI (HL-60(TB) leukemia): > 100 µM
TGI (UO-31 renal): > 100 µM
TGI (COLO 205 colon): > 100 µM
TGI (K-562 leukemia): > 100 µM
TGI (KM12 colon): > 100 µM
TGI (SK-MEL-5 melanoma): > 100 µM
TGI (HCC-2998 colon): > 100 µM
TGI (A498 renal): > 100 µM
TGI (DLD-1 colon): > 100 µM
TGI (SW-620 colon): > 100 µM
TGI (MCF7 breast): > 100 µM
TGI (MOLT-4 leukemia): > 100 µM
TGI (SN12C renal): > 100 µM
TGI (NCI-H522 lung): > 100 µM
TGI (HOP-92 NSCLC): > 100 µM
TGI (NCI-H226 lung): > 100 µM
TGI (RPMI-8226 leukemia): > 100 µM
TGI (NCI-H23 lung): > 100 µM
TGI (MALME-3M melanoma): > 100 µM
TGI (NCI-H460 lung): > 100 µM
TGI (XF 498 CNS): > 100 µM
TGI (CCRF-CEM leukemia): > 100 µM
TGI (P388 leukemia): > 100 µM
TGI (DMS 114 small cell lung): > 100 µM
TGI (OVCAR-3 ovarian): > 100 µM
TGI (HOP-18 NSCLC): > 100 µM
TGI (DMS 273 small cell lung): > 100 µM
TGI (A549 NSCLC): > 100 µM
TGI (SK-MEL-2 melanoma): > 100 µM
TGI (SF-295 CNS): > 100 µM
TGI (OVCAR-5 ovarian): > 100 µM
TGI (NCI/ADR-RES ovarian): > 100 µM
TGI (KM20L2 colon): > 100 µM
TGI (U251 CNS): > 100 µM

Cn1c(/C=C/CO)c(CO)c2c1C(=O)C=C(N1CC1)C2=O
TGI (SK-MEL-28 melanoma): 0.202 µM
TGI (HCT-15 colon): < 0.0159 µM
TGI (CAKI-1 renal): 0.0588 µM
TGI (RXF 393 renal): 0.0112 µM
TGI (SF-268 CNS): 0.0379 µM
TGI (SF-539 CNS): < 0.0163 µM
TGI (SN12K1 renal): 0.0224 µM
TGI (SK-OV-3 ovarian): 0.0855 µM
TGI (HCT-116 colon): 1.02 µM
TGI (SNB-78 CNS): 7.21 µM
TGI (LOX IMVI melanoma): 0.0102 µM
TGI (OVCAR-8 ovarian): 0.0936 µM
TGI (HOP-62 NSCLC): < 0.0139 µM
TGI (EKVX NSCLC): 0.178 µM
TGI (IGROV1 ovarian): 0.197 µM
TGI (HT29 colon): 0.0534 µM
TGI (OVCAR-4 ovarian): 0.223 µM
TGI (UACC-257 melanoma): 0.018 µM
TGI (M19-MEL melanoma): < 0.011 µM
TGI (SNB-19 CNS): 0.0369 µM
TGI (SNB-75 CNS): < 0.0124 µM
TGI (P388/ADR leukemia): 3.91 µM
TGI (UACC-62 melanoma): < 0.0115 µM
TGI (HL-60(TB) leukemia): 0.682 µM
TGI (UO-31 renal): < 0.01 µM
TGI (COLO 205 colon): 0.0236 µM
TGI (K-562 leukemia): 0.378 µM
TGI (KM12 colon): 0.0172 µM
TGI (SK-MEL-5 melanoma): < 0.015 µM
TGI (HCC-2998 colon): 0.0203 µM
TGI (A498 renal): 0.0235 µM
TGI (DLD-1 colon): 0.662 µM
TGI (SW-620 colon): 0.104 µM
TGI (MCF7 breast): 0.0156 µM
TGI (MOLT-4 leukemia): 4.15 µM
TGI (SN12C renal): 0.0253 µM
TGI (NCI-H522 lung): < 0.018 µM
TGI (HOP-92 NSCLC): 0.488 µM
TGI (NCI-H226 lung): 0.0602 µM
TGI (RPMI-8226 leukemia): 0.0805 µM
TGI (MALME-3M melanoma): 0.024 µM
TGI (NCI-H460 lung): < 0.01 µM
TGI (XF 498 CNS): 0.0171 µM
TGI (CCRF-CEM leukemia): 23.9 µM
TGI (P388 leukemia): 4.9 µM
TGI (DMS 114 small cell lung): 0.0153 µM
TGI (OVCAR-3 ovarian): 0.0561 µM
TGI (HOP-18 NSCLC): < 0.01 µM
TGI (DMS 273 small cell lung): < 0.0107 µM
TGI (A549 NSCLC): < 0.01 µM
TGI (SK-MEL-2 melanoma): < 0.01 µM
TGI (SF-295 CNS): < 0.01 µM
TGI (OVCAR-5 ovarian): < 0.0273 µM
TGI (NCI/ADR-RES ovarian): 0.0346 µM
TGI (KM20L2 colon): 0.0639 µM
TGI (U251 CNS): 0.0101 µM

O=Cc1c(Cn2ccnc2)c2cc([N+](=O)[O-])ccc2n1Cc1ccccc1
TGI (SK-MEL-28 melanoma): > 100 µM
TGI (HCT-15 colon): > 100 µM
TGI (CAKI-1 renal): 97.3 µM
TGI (RXF 393 renal): > 100 µM
TGI (SF-268 CNS): > 100 µM
TGI (SF-539 CNS): > 100 µM
TGI (SN12K1 renal): > 100 µM
TGI (SK-OV-3 ovarian): > 100 µM
TGI (HCT-116 colon): > 100 µM
TGI (SNB-78 CNS): > 100 µM
TGI (LOX IMVI melanoma): > 100 µM
TGI (OVCAR-8 ovarian): > 100 µM
TGI (HOP-62 NSCLC): 90.2 µM
TGI (EKVX NSCLC): > 100 µM
TGI (IGROV1 ovarian): > 100 µM
TGI (HT29 colon): > 100 µM
TGI (OVCAR-4 ovarian): > 100 µM
TGI (UACC-257 melanoma): > 100 µM
TGI (M19-MEL melanoma): > 100 µM
TGI (SNB-19 CNS): > 100 µM
TGI (SNB-75 CNS): > 100 µM
TGI (P388/ADR leukemia): > 100 µM
TGI (UACC-62 melanoma): > 100 µM
TGI (HL-60(TB) leukemia): > 41.9 µM
TGI (UO-31 renal): > 100 µM
TGI (COLO 205 colon): > 100 µM
TGI (K-562 leukemia): > 100 µM
TGI (KM12 colon): > 100 µM
TGI (SK-MEL-5 melanoma): > 100 µM
TGI (HCC-2998 colon): > 100 µM
TGI (A498 renal): > 100 µM
TGI (DLD-1 colon): > 100 µM
TGI (SW-620 colon): > 100 µM
TGI (MCF7 breast): > 100 µM
TGI (MOLT-4 leukemia): > 100 µM
TGI (SN12C renal): > 100 µM
TGI (NCI-H522 lung): > 100 µM
TGI (HOP-92 NSCLC): > 100 µM
TGI (NCI-H226 lung): > 100 µM
TGI (RPMI-8226 leukemia): > 100 µM
TGI (NCI-H23 lung): > 100 µM
TGI (MALME-3M melanoma): > 100 µM
TGI (NCI-H460 lung): > 100 µM
TGI (XF 498 CNS): > 100 µM
TGI (CCRF-CEM leukemia): > 100 µM
TGI (P388 leukemia): > 100 µM
TGI (DMS 114 small cell lung): > 100 µM
TGI (OVCAR-3 ovarian): > 100 µM
TGI (HOP-18 NSCLC): > 100 µM
TGI (DMS 273 small cell lung): > 100 µM
TGI (A549 NSCLC): > 100 µM
TGI (SK-MEL-2 melanoma): > 100 µM
TGI (SF-295 CNS): > 92.3 µM
TGI (OVCAR-5 ovarian): > 100 µM
TGI (NCI/ADR-RES ovarian): > 100 µM
TGI (KM20L2 colon): > 100 µM
TGI (U251 CNS): > 100 µM
